Measurements published in patent US9353075B2, “Disubstituted beta-lactones as inhibitors of N-acylethanolamine acid amidase (NAAA)” (The Regents of the University of California, priority 2011, dated 2016).

What was measured:
DNFB-induced scratching = DNFB-induced scratching in mice; format: in vivo, mouse; details: topical, single dose
Procedure: The methods included the following. Dermatitis was produced in mice using 2-4 dinitrofluorobenzene (DNFB) as described by Buckley and Nijkamp (1994), Am J Respir Grit Care Med 149:400-7. Mice were sensitized on two consecutive days with a 0.5% DNFB solution applied to the shaved abdomen. At day 8, the ears were challenged with a 0.2% DNFB solution. Ear thickness was determined by using a micrometer. Scratching was evaluated as number of episodes per 60 minutes period. Data were analysed by ANOVA followed by the Bonferroni's test. See also Hargreaves K, et al (1988), Pain 32: 77-88 for related information.
The methods include the following. Itching in mice was induced with DNFB as previously described. Additional studies were done with 48/80 model (an inducer of mast cell degranulation). 48/80 was given subcutaneously (30 mg per kg). Data were analysed by ANOVA followed by Bonferroni's test for multiple comparisons.

[1] = test system: 48/80-induced scratching (mast cell degranulation); test: Compound 48/80-induced scratching in mice; format: in vivo, mouse; details: topical, single dose, 48/80 30 mg per kg s.c.
Procedure: The methods include the following. Itching in mice was induced with DNFB as previously described. Additional studies were done with 48/80 model (an inducer of mast cell degranulation). 48/80 was given subcutaneously (30 mg per kg).

[2] = Chemical stability in PBS buffer pH 7.4; format: physicochemical; details: phosphate-buffered saline, 0.01M PBS pH 7.4, 37° C., read-out: Stability in PBS buffer, pH 7.4 t1/2
Procedure: Chemical stability of select compounds was evaluated under physiological pH conditions (0.01M Phosphate-Buffered Saline, pH 7.4) for up to 24 h. Stock solutions of each compound (10 mM) were prepared freshly in DMSO. Each compound was incubated at a final concentration of 10 μM (1% DMSO) in pre-heated buffer (0.01M Phosphate-Buffered Saline (PBS), pH 7.4 at 37° C.). The sample solutions were divided into aliquots in glass vials (pre-heated at 37° C.) for each time point. The samples were maintained at 37° C. in the UPLC/MS Autosampler during the study (no shaking). A reference solution of each compound (final concentration: 10 μM at 1% DMSO) in pre-heated CH3CN (37° C.) was prepared from the stock solutions (10 mM in DMSO). The reference solutions were maintained at 37° C. in the UPLC/MS Autosampler during the study (no shaking). An internal standard (100 nM) was added to the sample and reference solutions. For each time point, the samples were analyzed directly by LC/MS without any further sample preparation. The samples were analyzed (triplicate injection) by monitoring the MS trace by Multiple Reaction Monitoring (MRM). The compound concentration (expressed as %) was calculated by dividing the peak area at each time point by the peak area at t=0 min. The reference solution was analyzed at the beginning (t=0 min.), and at the end of the study (t=24 h). The apparent half-lives (t1/2) of the disappearance of compound were calculated by a one-phase decay equation using a non-linear regression of compound concentration versus time.
The analyses were performed on a Waters ACQUITY UPLC/MS TQD system consisting of a TQD (Triple Quadropole Detector) Mass Spectrometer equipped with an Electrospray Ionization interface and a Photodiode Array Detector. The analyses were run on an ACQUITY UPLC BEH C18 1.7 μm 2.1×50 mm column with a VanGuard BEH C18 1.7 μm pre-column at 40° C. The mobile phase was 0.1% HCOOH in H2O (A) and 0.1% HCOOH in CH3CN (B) using a linear gradient: 0-0.2 min.: 5% B, 0.2-2.2 min.: 5-95% B, 2.2-2.3 min.: 95-5% B, 2.3-3 min.: 5% B with flow rate at 0.5 mL/min. […]

r-NAAA = r-NAAA (Rattus norvegicus (Rat), UniProt Q5KTC7); test: r-NAAA inhibition, rat lung lysosomal NAAA preparation, UPLC/MS; format: biochemical
In short: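 Enzyme was a lysosomal fraction from male Sprague-Dawley rat lung, preincubated with compound 30 min at 37 °C in NaH2PO4/citrate pH 4.5, 1% Triton-X, 3 mM DTT. Heptadecenoylethanolamide (50 μM) was hydrolysed 30 min at 37 °C. Heptadecenoic acid was quantified by UPLC/MS against vehicle, and IC50 fitted by non-linear regression.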

Acid Ceramidase (AC) = Acid Ceramidase (AC) (Rattus norvegicus (Rat), UniProt Q6P7S1); test: Acid ceramidase inhibition, recombinant rat AC, LC-MS; format: biochemical; details: read-out: r-AC % inhib. @ 10 μM
Procedure: The PCR (High Fidelity PCR Master, Roche) product was subcloned into a pEF6-[…] vector (Invitrogen) to construct a mammalian expression vector encoding […]-tagged rat AC. HEK293 cells were transfected with pEF6-rAC-[…] using Super-Fect reagent (Qiagen) and screened with G418 (0.3 mg/mL). Cells were suspended in 20 mM Tris HCl (pH 7.5) containing 0.32M sucrose, sonicated and centrifuged at 800×g for 15 minutes at 4° C. The supernatants were centrifuged again at 12,000×g for 30 minutes at 4° C. The pellets were suspended in phosphate-buffered saline (PBS) and subjected to 2 freeze-thaw cycles at -80° C. The suspensions were centrifuged at 105,000×g for 1 hour at 4° C. The supernatants containing recombinant AC were kept at -80° C. until use. Protein concentration was measured using the bicinchoninic acid (BCA) assay (Pierce). […] Reactions were stopped by addition of a mixture of chloroform/methanol (2:1, vol/vol) containing 1 nmol of heptadecanoic acid (HDA; NuChek Prep). […] HDA was eluted on an XDB Eclipse C18 column isocratically at 2.2 mL/min for 1 minute with a solvent mixture of 95% methanol and 5% water, both containing 0.25% acetic acid and 5 mM ammonium acetate. The column temperature was 50° C. Electrospray ionization (ESI) was in the negative mode, capillary voltage as 4 kV, and fragmentor voltage was 100 V. N2 was used as drying gas at a flow rate of 13 L/min and a temperature of 350° C. Nebulizer pressure was set at 60 psi. We monitored [M-H]- in the selected-ion monitoring (SIM) mode using HDA as internal standard. Calibration curves were generated using commercial lauric acid (Nu-Chek Prep; m/z=199).

Sequence of Acid Ceramidase (AC) (Q6P7S1 21-394): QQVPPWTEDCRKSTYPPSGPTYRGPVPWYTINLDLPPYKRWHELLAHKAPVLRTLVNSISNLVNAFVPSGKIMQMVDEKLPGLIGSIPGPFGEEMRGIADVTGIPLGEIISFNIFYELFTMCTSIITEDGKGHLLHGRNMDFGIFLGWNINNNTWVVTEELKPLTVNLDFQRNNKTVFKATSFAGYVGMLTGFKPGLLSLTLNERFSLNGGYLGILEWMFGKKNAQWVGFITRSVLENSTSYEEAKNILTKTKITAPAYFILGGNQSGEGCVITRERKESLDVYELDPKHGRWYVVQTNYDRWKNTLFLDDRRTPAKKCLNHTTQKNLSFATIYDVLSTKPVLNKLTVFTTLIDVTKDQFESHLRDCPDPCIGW
Sequence of r-NAAA (Q5KTC7 34-362): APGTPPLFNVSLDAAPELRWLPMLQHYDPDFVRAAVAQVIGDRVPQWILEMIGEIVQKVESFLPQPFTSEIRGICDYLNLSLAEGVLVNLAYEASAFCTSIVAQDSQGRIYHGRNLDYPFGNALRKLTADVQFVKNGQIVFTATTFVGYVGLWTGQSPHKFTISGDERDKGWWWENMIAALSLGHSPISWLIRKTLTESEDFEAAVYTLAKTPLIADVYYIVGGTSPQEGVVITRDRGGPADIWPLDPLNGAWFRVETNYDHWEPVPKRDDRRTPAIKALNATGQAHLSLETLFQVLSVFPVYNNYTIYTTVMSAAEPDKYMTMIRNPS

half-life at 10 μM [2] | IC50 (r-NAAA) | inhibition at 10 µM (Acid Ceramidase (AC)) | SMILES | DNFB-induced scratching (DNFB-induced scratching) | 48/80-induced scratching [1]
– | – | – | CC(CN1c2ccccc2Sc2ccccc21)N(C)C (stereo not drawn) [promethazine, reference compound] | without effect | effective
23 min | – | – | O=C(N[C@H]1COC1=O)OCCCCCc1ccccc1 | – | –
63 min | 540 nM | < 10% | C[C@@H]1OC(=O)[C@@H]1NC(=O)CCCCCCc1ccccc1 [corresponding amide analog, reference compound] | – | –
